Measured values as given in US20200029601A1, “PHENYLACRYLIC ACID SOLUTION FOR BROAD SPECTRUM ANTIMICROBIAL APPLICATIONS FOR FOODSTUFFS” (KLF LABS LLC, priority 2018, published 2020).
Like-named read-outs stand apart in the source and are kept apart here.

What was measured:
Candida parapsilosis = assay: microbe, parasite or virus in culture; details: Lodderomyces parapsilosis, 48 h
Procedure: (§1) The media was then sterilized by steam autoclaving the solution for 15 minutes at 121° C. and the media was placed into 3 96 cell plates and pH using either 0.1N HCl or 0.1N NaOH to pH values of 3.1, 5.6, 6.0, 6.5, 7.0, and 7.5.
(§2) Three exemplary embodiment solutions were added and serial diluted into a series of treatment wells and 0.5 McFarland Standard's worth of yeast cells were added to each well. The plates were incubated at 32° C. for 48 hours and then the OD was read at 600 nm. The percent inhibition was graphed as a percentage of the following formula indicated in Equation 1.

Zygosaccharomyces rouxii = assay: microbe, parasite or virus in culture; details: 48 h
Procedure: as §1, §2

Saccharomyces cerevisiae [1] = assay: microbe, parasite or virus in culture; details: 48 h
Procedure: as §1, §2

Zygosaccharomyces bailii = assay: microbe, parasite or virus in culture; details: 48 h
Procedure: as §1, §2

Saccharomyces cerevisiae [2] = details: 1000 ppm (positive control); pH 4.0; 72 hours
Procedure: Each of the formulations presented above was added to each of the three 20 mL samples of the agar medium.
In connection with this particular experiment, the pH of the samples was adjusted to a pH value of 4.0 by adding a small amount of 0.1 M HCl. The samples were then sterilized with steam at 121° C. for 15 minutes. In one embodiment, 1 mL sample formulations were poured into a 1.5 mL sterile microcentrifuge tube and inoculated with ˜10,000 Saccharomyces cerevisiae cells (e.g., yeast cells). The cells were allowed to grow outwards for 72 hours and then the endpoint concentration of cell growth was determined spectrophotometrically at 660 nm. In samples where cell growth was generally absent cell samples were diluted and counted on a yeast extract peptone dextrose plate. Controls to account for the presence of binder in the absorbance reading were subtracted out in the reporting of the final absorbance. The negative control was diluted twenty times prior to reading the Abs 660 nm.

Escherichia coli = details: 500 ppm; pH 4.5; 24 hours growth, then plated
Procedure: (§3) In conducting tests with the model organisms, agar medium for 1 L plates were first prepared having the composition indicated in Table 16.
(§4) In connection with this particular experiment, the pH of the samples was adjusted to a pH value of 4.5 by adding a small amount of 0.1 M HCl. The samples were then sterilized with steam at 121° C. for about 15 minutes. The formulations were allowed to cool to 70° F., after which a sample of 10^6 cells of an aforementioned microorganism, as measured using the optical density of the cells, was applied to 1 mL of the individual solutions. Afterwards, samples were allowed to grow for 24 hours. The solutions were diluted one hundred-fold and 10 microliters were applied to a LB media plate and outgrown for 24 additional hours.

[3] = system: Lactobacillus acidophilus; details: 500 ppm; pH 4.5; 24 hours growth, then plated
Procedure: as §3, §4

[4] = system: Saccharomyces cerevisiae, Candida parapsilosis, Zygosaccharomyces rouxii, and Zygosaccharomyces bailii; assay: Experimental Test 3, summary statements over the yeast species; format: cell-based; details: Tables 12-15; pH 3.1-7.5
Procedure: as §1, §2

[5] = pH 3.1, read-out: Percent inhibition
[6] = pH 5.6, read-out: Percent inhibition
[7] = pH 6, read-out: Percent inhibition
[8] = pH 6.5, read-out: Percent inhibition
[9] = pH 7, read-out: Percent inhibition
[10] = pH 7.5, read-out: Percent inhibition

## C/C=C/C=C/C(=O)[O-].[K+] [Potassium Sorbate]
Candida parapsilosis; [5]
  inhibition at 130 ppm: 0.9%
  inhibition at 250 ppm: 5.2%
  inhibition at 500 ppm: 16.2%
  inhibition at 1000 ppm: 13.5%
  inhibition at 2000 ppm: 6.5%
Candida parapsilosis; [6]
  inhibition at 130 ppm: 9.5%
  inhibition at 250 ppm: 12.3%
  inhibition at 500 ppm: 28.7%
  inhibition at 1000 ppm: 32.8%
  inhibition at 2000 ppm: 42.4%
Candida parapsilosis; [7]
  inhibition at 130 ppm: 5%
  inhibition at 250 ppm: 12.8%
  inhibition at 500 ppm: 7.6%
  inhibition at 1000 ppm: 4.6%
  inhibition at 2000 ppm: 2.8%
Candida parapsilosis; [8]
  inhibition at 130 ppm: 3.3%
  inhibition at 250 ppm: 1.1%
  inhibition at 500 ppm: 0%
  inhibition at 1000 ppm: 0%
  inhibition at 2000 ppm: 0.8%
Candida parapsilosis; [9]
  inhibition at 130 ppm: 1.7%
  inhibition at 250 ppm: 8.8%
  inhibition at 500 ppm: 15.9%
  inhibition at 1000 ppm: 8.3%
  inhibition at 2000 ppm: 8.4%
Candida parapsilosis; [10]
  inhibition at 130 ppm: 6.2%
  inhibition at 250 ppm: 0%
  inhibition at 500 ppm: 0%
  inhibition at 1000 ppm: 0%
  inhibition at 2000 ppm: 7.4%
Zygosaccharomyces rouxii; [5]
  inhibition at 130 ppm: 39.3%
  inhibition at 250 ppm: 66.7%
  inhibition at 500 ppm: 80.4%
  inhibition at 1000 ppm: 88.6%
  inhibition at 2000 ppm: 84.2%
Zygosaccharomyces rouxii; [6]
  inhibition at 130 ppm: 93.7%
  inhibition at 250 ppm: 95.9%
  inhibition at 500 ppm: 37.7%
  inhibition at 1000 ppm: 99.3%
  inhibition at 2000 ppm: 100%
Zygosaccharomyces rouxii; [7]
  inhibition at 130 ppm: 0%
  inhibition at 250 ppm: 0%
  inhibition at 500 ppm: 3.4%
  inhibition at 1000 ppm: 17.4%
  inhibition at 2000 ppm: 63.3%
Zygosaccharomyces rouxii; [8]
  inhibition at 130 ppm: 19.7%
  inhibition at 250 ppm: 0%
  inhibition at 500 ppm: 6.7%
  inhibition at 1000 ppm: 65.6%
  inhibition at 2000 ppm: 90.6%
Zygosaccharomyces rouxii; [9]
  inhibition at 130 ppm: 4.7%
  inhibition at 250 ppm: 9.2%
  inhibition at 500 ppm: 62.7%
  inhibition at 1000 ppm: 86.2%
  inhibition at 2000 ppm: 89.3%
Zygosaccharomyces rouxii; [10]
  inhibition at 130 ppm: 7.2%
  inhibition at 250 ppm: 16.5%
  inhibition at 500 ppm: 48.6%
  inhibition at 1000 ppm: 74.9%
  inhibition at 2000 ppm: 95.2%
Saccharomyces cerevisiae [1]; [5]
  inhibition at 130 ppm: 99.6%
  inhibition at 250 ppm: 99.4%
  inhibition at 500 ppm: 99.7%
  inhibition at 1000 ppm: 99.8%
  inhibition at 2000 ppm: 99.3%
Saccharomyces cerevisiae [1]; [6]
  inhibition at 130 ppm: 84.9%
  inhibition at 250 ppm: 95.3%
  inhibition at 500 ppm: 98.1%
  inhibition at 1000 ppm: 99%
  inhibition at 2000 ppm: 99.4%
Saccharomyces cerevisiae [1]; [7]
  inhibition at 130 ppm: 9.9%
  inhibition at 250 ppm: 25%
  inhibition at 500 ppm: 50.3%
  inhibition at 1000 ppm: 62%
  inhibition at 2000 ppm: 76.2%
Saccharomyces cerevisiae [1]; [8]
  inhibition at 130 ppm: 17.7%
  inhibition at 250 ppm: 28.2%
  inhibition at 500 ppm: 48.1%
  inhibition at 1000 ppm: 60.6%
  inhibition at 2000 ppm: 84.6%
Saccharomyces cerevisiae [1]; [9]
  inhibition at 130 ppm: 22%
  inhibition at 250 ppm: 37.9%
  inhibition at 500 ppm: 53.2%
  inhibition at 1000 ppm: 69%
  inhibition at 2000 ppm: 84.9%
Saccharomyces cerevisiae [1]; [10]
  inhibition at 130 ppm: 19.4%
  inhibition at 250 ppm: 44.9%
  inhibition at 500 ppm: 55.8%
  inhibition at 1000 ppm: 73.6%
  inhibition at 2000 ppm: 72.1%
Zygosaccharomyces bailii; [5]
  inhibition at 130 ppm: 91.9%
  inhibition at 250 ppm: 96.5%
  inhibition at 500 ppm: 99.1%
  inhibition at 1000 ppm: 99.7%
  inhibition at 2000 ppm: 100%
Zygosaccharomyces bailii; [6]
  inhibition at 130 ppm: 70.4%
  inhibition at 250 ppm: 86.7%
  inhibition at 500 ppm: 95.6%
  inhibition at 1000 ppm: 99.7%
  inhibition at 2000 ppm: 99.8%
Zygosaccharomyces bailii; [7]
  inhibition at 130 ppm: 0%
  inhibition at 250 ppm: 0%
  inhibition at 500 ppm: 0%
  inhibition at 1000 ppm: 1.8%
  inhibition at 2000 ppm: 3%
Zygosaccharomyces bailii; [8]
  inhibition at 130 ppm: 0%
  inhibition at 250 ppm: 0%
  inhibition at 500 ppm: 0%
  inhibition at 1000 ppm: 0%
  inhibition at 2000 ppm: 20%
Zygosaccharomyces bailii; [9]
  inhibition at 130 ppm: 0%
  inhibition at 250 ppm: 0%
  inhibition at 500 ppm: 0%
  inhibition at 1000 ppm: 0%
  inhibition at 2000 ppm: 16%
Zygosaccharomyces bailii; [10]
  inhibition at 130 ppm: 9.7%
  inhibition at 250 ppm: 0%
  inhibition at 500 ppm: 0%
  inhibition at 1000 ppm: 0%
  inhibition at 2000 ppm: 0.3%
Saccharomyces cerevisiae [2]
  Abs 660 nm after 3 days: 0.0396 ± 0.005
  Cell Count after 3 days: 5.3 × 10^5 CFU/mL
Escherichia coli
  Escherichia coli cell count: 5.49 Log(CFU/mL)
[3]
  Lactobacillus acidophilus cell count: <2 Log(CFU/mL)

## O=C(O)C(O)c1ccccc1 (centres unmarked) [mandelic acid]
[4]
  increase of the efficacy of potassium sorbate by addition of mandelic acid: 2-10 ×
